Data reported in patent US8993622B2, “Antiviral compounds” (Eirium AB, priority 2010, dated 2015).
Read-outs that look alike come from different tables or passages of the source.

Columns and labels:
Ad5 = assay: microbe, parasite or virus in culture; type: cell-based, human adenovirus; details: for Inh. (% inhibition of Ad5 at 15 μM): Ad5, 15 μM (Table 2); for inhibition at 5 µM: A549, read-out: % Inh. at 5 μM; for inhibition at 20 µM: A549, read-out: % Inh. at 20 μM; for activity compared with A02 (inhibition of adenovirus replication): second generation inhibitors, Table 4; for EC50: A549; for effect on the replication of Ad5 (QPCR): A549 cells
cells = assay: Cellular toxicity of select compounds (% dead cells, CC50); type: cell-based
[1] = Human adenovirus sp., A549, read-out: Inh. (% inhibition of Ad5 at 15 μM)
[2] = unidentified adenovirus, A549, read-out: % Inh. at 15 μM

SMILES: CCOC(=O)c1cccc(NC(=O)c2ccccc2NC(=O)c2ccccc2)c1 [Compound 7a, 4-Ethyl 3-[(2-benzoylamino)benzoylamino]-benzoate]
- inhibition at 15 µM (Ad5; [1]): 0%

SMILES: CCOC(=O)c1ccc(NC(=O)c2ccccc2NC(=O)c2ccccc2)cc1 [Compound 7b, Ethyl 4-[(2-benzoylamino)benzoylamino]-benzoate]
- Inh. (% inhibition of Ad5 at 15 μM) (Ad5): 8%

SMILES: CCOC(=O)c1ccccc1NC(=O)c1cccc(NC(=O)c2ccccc2)c1 [Compound 7c, Ethyl 2-[(3-benzoylamino)benzoylamino]-benzoate]
- Inh. (% inhibition of Ad5 at 15 μM) (Ad5): 25%

SMILES: CCOC(=O)c1ccccc1NC(=O)c1ccc(NC(=O)c2ccccc2)cc1 [Compound 7d, Ethyl 2-[(4-benzoylamino)benzoylamino]-benzoate]
- Inh. (% inhibition of Ad5 at 15 μM) (Ad5): 15%

SMILES: O=C(O)c1cccc(NC(=O)c2ccccc2NC(=O)c2ccccc2)c1 [Compound 8a, 3-[(2-benzoylamino)benzoylamino]-benzoic acid]
- Inh. (% inhibition of Ad5 at 15 μM) (Ad5): 8%

SMILES: O=C(O)c1ccc(NC(=O)c2ccccc2NC(=O)c2ccccc2)cc1 [Compound 8b, 4-[(2-benzoylamino)benzoylamino]-benzoic acid]
- Inh. (% inhibition of Ad5 at 15 μM) (Ad5): 8%

SMILES: O=C(Nc1cccc(C(=O)Nc2ccccc2C(=O)O)c1)c1ccccc1 [Compound 8c, 2-[(3-benzoylamino)benzoylamino]-benzoic acid]
- Inh. (% inhibition of Ad5 at 15 μM) (Ad5): 39%

SMILES: O=C(Nc1ccc(C(=O)Nc2ccccc2C(=O)O)cc1)c1ccccc1 [Compound 8d, 2-[(4-benzoylamino)benzoylamino]-benzoic acid]
- inhibition at 15 µM (Ad5; [1]): 47%

SMILES: O=C(Nc1ccccc1C(=O)Nc1ccccc1)c1ccccc1 [Compound 11, 2-Benzoylamino-N-phenyl-benzamide]
- inhibition at 15 µM (Ad5; [1]): 18%

SMILES: Cc1ccc(C(=O)Nc2ccccc2C(=O)Nc2ccccc2C(=O)O)cc1 [Compound 12c, 2-[[2-(4-Methyl-benzoylamino)benzoyl]amino]-benzoic acid]
- inhibition at 5 µM (Ad5; Human adenovirus sp.): 89.2%
- inhibition at 20 µM (Ad5; Human adenovirus sp.): 98.5%

SMILES: NC(=O)c1ccccc1NC(=O)c1cccc(NC(=O)c2ccccc2)c1 [Compound 12d, 2-[[3-(Benzoylamino)benzoyl]amino]-benzamide]
- inhibition at 5 µM (Ad5; Human adenovirus sp.): 51.1%
- inhibition at 20 µM (Ad5; Human adenovirus sp.): 44.2%

SMILES: Cc1ccccc1C(=O)Nc1cccc(C(=O)Nc2ccccc2C(=O)O)c1 [Compound 12e, 2-[[3-(2-Methyl-benzoylamino)benzoyl]amino]-benzoic acid]
- inhibition at 5 µM (Ad5; Human adenovirus sp.): 44%
- inhibition at 20 µM (Ad5; Human adenovirus sp.): 55.8%

SMILES: COc1ccc(C(=O)Nc2ccccc2C(=O)Nc2ccccc2C(=O)O)cc1 [Compound 12f, 2-[[2-(4-Methoxy-benzoylamino)benzoyl]amino]-benzoic acid]
- inhibition at 5 µM (Ad5; Human adenovirus sp.): 25.2%
- inhibition at 20 µM (Ad5; Human adenovirus sp.): 96.5%

SMILES: Cc1ccc(C(=O)Nc2ccccc2C(=O)Nc2ccccc2C)cc1 [Compound 12g, 4-Methyl-N-{2-[(2-methylphenyl)carbamoyl]phenyl}-benzamide]
- inhibition at 5 µM (Ad5; Human adenovirus sp.): 24.5%
- inhibition at 20 µM (Ad5; Human adenovirus sp.): 22.2%

SMILES: CC(=O)Nc1ccccc1C(=O)Nc1ccccc1C(=O)O [Compound 17a, 2-[2-(Acetylamino)benzoylamino]benzoic acid]
- inhibition at 5 µM (Ad5; unidentified adenovirus): 4 ± 11%
- inhibition at 15 µM (Ad5; [2]): 24 ± 14%

SMILES: CS(=O)(=O)Nc1ccccc1C(=O)Nc1ccccc1C(=O)O [Compound 17b, 2-[2-(Methanesulfonylamino)benzoylamino]benzoic acid]
- inhibition at 5 µM (Ad5; unidentified adenovirus): 0%
- inhibition at 15 µM (Ad5; [2]): 23 ± 12%

SMILES: Cc1ccc(S(=O)(=O)Nc2ccccc2C(=O)Nc2ccccc2C(=O)O)cc1 [Compound 17c, 2-[2-(p-Toluenesulfonylamino)benzoylamino]benzoic acid]
- inhibition at 5 µM (Ad5; unidentified adenovirus): 2 ± 24%
- inhibition at 15 µM (Ad5; [2]): 8 ± 35%

SMILES: CC(C)(C)C(=O)Nc1ccccc1C(=O)Nc1ccccc1C(=O)O [Compound 17d, 2-[2-(Trimethylacetylamino)benzoylamino]benzoic acid]
- inhibition at 5 µM (Ad5; unidentified adenovirus): 45 ± 7%
- inhibition at 15 µM (Ad5; [2]): 52 ± 18%

SMILES: O=C(O)c1ccccc1NC(=O)c1ccccc1NC(=O)C1CCCCC1 [Compound 17e, 2-[[2-(Cyclohexanecarboxylamino)benzoyl]amino]benzoic acid]
- activity compared with A02 (inhibition of adenovirus replication) (Ad5): diminished but not abolished activity
- inhibition at 5 µM (Ad5; unidentified adenovirus): 20 ± 1%
- inhibition at 15 µM (Ad5; [2]): 55 ± 11%

SMILES: O=C(O)CCC(=O)Nc1ccccc1C(=O)Nc1ccccc1C(=O)O [Compound 17f, 2-[2-(4-Carboxybutanoylamido)benzoyl]aminobenzoic acid]
- inhibition at 5 µM (Ad5; unidentified adenovirus): 0%
- inhibition at 15 µM (Ad5; [2]): 0%

SMILES: O=C(O)c1ccccc1NC(=O)c1ccccc1NCc1ccccc1 [Compound 17g, 2-[2-(Benzylamino)benzoylamino]benzoic acid]
- activity compared with A02 (inhibition of adenovirus replication) (Ad5): diminished but not abolished activity
- EC50 (Ad5; unidentified adenovirus): 11400 nM
- inhibition at 5 µM (Ad5; unidentified adenovirus): 44 ± 17%
- inhibition at 15 µM (Ad5; [2]): 79 ± 5%
- Toxicity at 30 μM (% dead cells after 24 h) (cells): 6 ± 10%
- Toxicity at 60 μM (% dead cells after 24 h) (cells): 11 ± 13%

SMILES: O=C(Nc1ccccc1C(=O)Nc1ccccc1C(=O)O)c1ccccc1F [Compound 17h, 2-[2-(2-Fluorobenzoylamino)-benzoylamino]benzoic acid]
- activity compared with A02 (inhibition of adenovirus replication) (Ad5): statistically significantly higher activity than A02
- EC50 (Ad5; unidentified adenovirus): 2300 nM
- inhibition at 5 µM (Ad5; unidentified adenovirus): 96 ± 1%
- inhibition at 15 µM (Ad5; [2]): 96 ± 1%
- Toxicity at 30 μM (% dead cells after 24 h) (cells): 17 ± 9%
- Toxicity at 60 μM (% dead cells after 24 h) (cells): 29 ± 12%
- cellular toxicity compared with A02 (cells; Table 7): slightly more toxic than A02

SMILES: O=C(Nc1ccccc1C(=O)Nc1ccccc1C(=O)O)c1cccc(F)c1 [Compound 17i, 2-[2-(3-Fluorobenzoylamino)-benzoylamino]benzoic acid]
- inhibition at 5 µM (Ad5; unidentified adenovirus): 41 ± 32%
- inhibition at 15 µM (Ad5; [2]): 0%

SMILES: O=C(Nc1ccccc1C(=O)Nc1ccccc1C(=O)O)c1ccc(F)cc1 [Compound 17j, 2-[2-(4-Fluorobenzoylamino)-benzoylamino]benzoic acid]
- EC50 (Ad5; unidentified adenovirus): 3500 nM
- inhibition at 5 µM (Ad5; unidentified adenovirus): 76 ± 10%
- inhibition at 15 µM (Ad5; [2]): 95 ± 1%
- Toxicity at 30 μM (% dead cells after 24 h) (cells): 14 ± 10%
- Toxicity at 60 μM (% dead cells after 24 h) (cells): 10 ± 10%

SMILES: O=C(Cc1ccccc1)Nc1ccccc1C(=O)Nc1ccccc1C(=O)O [Compound 17k, 2-[2-(Phenylacetylamino)benzoylamino]benzoic acid]
- inhibition at 5 µM (Ad5; unidentified adenovirus): 32 ± 19%
- inhibition at 15 µM (Ad5; [2]): 21 ± 12%

SMILES: O=C(O)Cc1ccccc1NC(=O)c1ccccc1NC(=O)c1ccccc1 [Compound 23, 2-[2-(benzoylamino)benzoylamino]phenylacetic acid]
- inhibition at 5 µM (Ad5; unidentified adenovirus): 0%
- inhibition at 15 µM (Ad5; [2]): 0%

SMILES: O=C(Cc1ccccc1NC(=O)c1ccccc1)Nc1ccccc1C(=O)O [Compound 28, 2-[2-(benzoylamino)phenylacetylamino]benzoic acid]
- inhibition at 5 µM (Ad5; unidentified adenovirus): 0%
- inhibition at 15 µM (Ad5; [2]): 0%

SMILES: O=C(Nc1ccccc1C(=O)Nc1cc(Cl)ccc1C(=O)O)c1ccccc1F [Compound 35a, 2-[2-(2-fluorobenzoylamino)-benzoylamino]-4-chlorobenzoic acid]
- inhibition at 5 µM (Ad5; unidentified adenovirus): 0%
- inhibition at 15 µM (Ad5; [2]): 61%

SMILES: O=C(Nc1ccccc1C(=O)Nc1ccc(Cl)cc1C(=O)O)c1ccccc1F [Compound 35b, 2-[2-(2-fluorobenzoylamino)benzoylamino]-5-chlorobenzoic acid]
- inhibition at 5 µM (Ad5; unidentified adenovirus): 0%
- inhibition at 15 µM (Ad5; [2]): 0%

SMILES: COc1ccc(C(=O)O)c(NC(=O)c2ccccc2NC(=O)c2ccccc2F)c1 [Compound 35c, 2-[2-(2-fluorobenzoylamino)-benzoylamino]-4-methoxybenzoic acid]
- inhibition at 5 µM (Ad5; unidentified adenovirus): 79 ± 21%
- inhibition at 15 µM (Ad5; [2]): 95 ± 22%

SMILES: COc1ccc(NC(=O)c2ccccc2NC(=O)c2ccccc2F)c(C(=O)O)c1 [Compound 35d, 2-[2-(2-fluorobenzoylamino)-benzoylamino]-5-methoxybenzoic acid]
- inhibition at 5 µM (Ad5; unidentified adenovirus): 28 ± 20%
- inhibition at 15 µM (Ad5; [2]): 78 ± 3%

SMILES: O=C(Nc1ccccc1C(=O)Nc1cc(F)c(F)cc1C(=O)O)c1ccccc1F [Compound 35e, 2-[2-(2-fluorobenzoylamino)-benzoylamino]-4,5-difluorobenzoic acid]
- inhibition at 5 µM (Ad5; unidentified adenovirus): 0%
- inhibition at 15 µM (Ad5; [2]): 0%

SMILES: O=C(Nc1cc(Cl)ccc1C(=O)Nc1ccccc1C(=O)O)c1ccccc1F [Compound 35f, 2-[4-chloro-2-(2-fluorobenzoylamino)-benzoylamino]benzoic acid]
- EC50 (Ad5; unidentified adenovirus): 4140 nM
- inhibition at 5 µM (Ad5; unidentified adenovirus): 57 ± 5%
- inhibition at 15 µM (Ad5; [2]): 78 ± 2%
- Toxicity at 30 μM (% dead cells after 24 h) (cells): 14 ± 5%
- Toxicity at 60 μM (% dead cells after 24 h) (cells): 25 ± 8%

SMILES: O=C(Nc1ccc(Cl)cc1C(=O)Nc1ccccc1C(=O)O)c1ccccc1F [Compound 35g, 2-[5-chloro-2-(2-fluorobenzoylamino)-benzoylamino]benzoic acid]
- EC50 (Ad5; unidentified adenovirus): 680 nM
- inhibition at 5 µM (Ad5; unidentified adenovirus): 89 ± 2%
- inhibition at 15 µM (Ad5; [2]): 91 ± 2%
- Toxicity at 30 μM (% dead cells after 24 h) (cells): 11 ± 7%
- Toxicity at 60 μM (% dead cells after 24 h) (cells): 24 ± 9%

SMILES: COc1ccc(C(=O)Nc2ccccc2C(=O)O)c(NC(=O)c2ccccc2F)c1 [Compound 35h, 2-[4-methoxy-2-(2-fluorobenzoylamino)-benzoylamino]benzoic acid]
- EC50 (Ad5; unidentified adenovirus): 1500 nM
- inhibition at 5 µM (Ad5; unidentified adenovirus): 92 ± 3%
- inhibition at 15 µM (Ad5; [2]): 89 ± 6%
- Toxicity at 30 μM (% dead cells after 24 h) (cells): 10 ± 15%
- Toxicity at 60 μM (% dead cells after 24 h) (cells): 18 ± 15%

SMILES: COc1ccc(NC(=O)c2ccccc2F)c(C(=O)Nc2ccccc2C(=O)O)c1 [Compound 35i, 2-[5-methoxy-2-(2-fluorobenzoylamino)-benzoylamino]benzoic acid]
- EC50 (Ad5; unidentified adenovirus): 1400 nM
- inhibition at 5 µM (Ad5; unidentified adenovirus): 91 ± 6%
- inhibition at 15 µM (Ad5; [2]): 97 ± 1%
- Toxicity at 30 μM (% dead cells after 24 h) (cells): 18 ± 12%
- Toxicity at 60 μM (% dead cells after 24 h) (cells): 28 ± 12%

SMILES: O=C(Nc1ccccc1C(=O)O)c1ccccc1 [Compound A01, reference compound]
- effect on the replication of Ad5 (QPCR) (Ad5): Neither the smaller (A01) nor the larger (A03) molecule showed any anti-adenoviral effect

SMILES: O=C(Nc1ccccc1C(=O)Nc1ccccc1C(=O)Nc1ccccc1C(=O)O)c1ccccc1 [Compound A03, reference compound]
- effect on the replication of Ad5 (QPCR) (Ad5): Neither the smaller (A01) nor the larger (A03) molecule showed any anti-adenoviral effect
